Measured values reported in article PMC4138991, “Building a Better Dynasore: The Dyngo Compounds Potently Inhibit Dynamin and Endocytosis” (Traffic (Copenhagen, Denmark), 2013).

System: cultured CGNs
Assay: HRP labeling of endocytosis pathways (electron microscopy) in CGNs
Format: cell-based, rat
Settings: 30 μM, 15 min, 80 Hz 10 s
Procedure: Granule neuron cultures were prepared from the cerebella of 7‐day‐old rat pups as previously described 57. In all experiments, neurons were used between 8 and 10 days in vitro.
Granule neurons were processed for electron microscopy as previously described 40. Briefly, cells were transferred to incubation medium for 10 min and subsequently incubated with or without 30 μM 4a for 15 min. Cultures were next stimulated with 800 action potentials (80 Hz) in incubation medium supplemented with HRP (10 mg/mL) in the presence or absence of 4a. Cells were fixed in a 2% solution of glutaraldehyde in phosphate‐buffered saline for 30 min at 37°C directly after stimulation. After washing with 100 mM Tris (pH 7.4) cells were exposed to 0.1% diaminobenzidine and 0.2% H2O2 in 100 mM Tris. On development of color, cells were washed with 100 mM Tris and subsequently stained with 1% osmium tetroxide for 30 min. After washing, cells were post‐stained with 2% uranyl acetate for 15 min, then dehydrated using ethanol series and polypropylene oxide and embedded using Durcupan. Samples were sectioned, mounted on grids and viewed using a FEI Tecnai 12 transmission electron microscope. Intracellular structures that were less than 100 nm in diameter were arbitrarily designated to be synaptic vesicles, whereas larger structures were designated to be endosomes.

O=C(N/N=C/c1cc(O)c(O)cc1O)c1cc2ccccc2cc1O [4a, (E)-3-Hydroxy-N'-(2,4,5-trihydroxybenzylidene) -2-naphthohydrazide]
number of HRP-labeled endosomes (ADBE): caused a decrease in the number | number of HRP-labeled synaptic vesicles (neuronal CME): significant reduction in the number of labeled synaptic vesicles
